Measured values from patent US20120164756A1, “ASPIRIN ASSAY” (RANDOX LABORATORIES LIMITED, priority 2009, published 2012).

What was measured:
[1] = system: antibodies raised from SUA-BTG; test: Biochip-based competitive immunoassay (salicyluric acid dose-response curve and cross-reactivity profile); format: binding, sheep; settings: Concentration 350 μg/ml
Method: In order to generate polyclonal antisera, the immunogen (prepared in Example 2) was mixed with primary complete Freund's Adjuvant (Sigma) and injected into a host sheep to provide target-specific polyclonal antisera. On a monthly basis the immunogen (with incomplete Freund's Adjuvant) was injected into the sheep. The host animal was bled to yield a suitable volume of specific antiserum. IgG was then extracted from the antisera via Caprylic acid/ammonium sulphate precipitation of immunoglobulin.
Nine calibrator solutions of salicyluric acid (0-5.00 μg/ml) were prepared in calibrator buffer for standard curves. Cross-reactants (aspirin, 4-aminosalcylic acid, benzoic acid, diflusinal, gentisic acid, gentisuric acid, ibuprofen, methyl salicylate, salicylic acid and salsalate) were diluted in calibrator buffer (0-350 μg/ml). Assay diluent (155 μl), sample/antigen (25 μl), and diluted conjugate (Hapten 1-HRP 120 μl) were added to biochips wells. Biochips were incubated for 30 min at 30° C. in a thermoshaker at 370 rpm, and then washed with TBST buffer (2 quick washes followed by 4 washes with 2 min intervals). Biochips were developed with 250 μl luminol plus: peroxide (1:1) for 2 min in the dark, and were then imaged on the Randox Investigator (2×60 sec images).

[2] = cited from earlier work; for share of excreted product: excretion after aspirin ingestion; for kinetics of formation: hepatic metabolism of salicylic acid
[3] = cited from earlier work
[4] = after ingestion of a therapeutic amount of aspirin

Compound | % Cross-reactivity [1] | share of excreted product [2] | kinetics of formation [2] | also measured
O=C(O)c1cc(O)ccc1O [Gentisic acid] | <<1.00% | approximately 1% | first-order kinetics | 
Nc1ccc(C(=O)O)c(O)c1 [4-aminosalicylic acid] | <<1.00% |  |  | 
O=C(O)c1ccccc1 [Benzoic acid] | <<1.00% |  |  | 
CC(C)Cc1ccc(C(C)C(=O)O)cc1 (stereo not drawn) [Ibuprofen] | <<1.00% |  |  | 
O=C(O)CNC(=O)c1ccccc1 [Hippuric acid] | <<1.00% |  |  | 
O=C(O)c1ccccc1O [Salicylic acid, salicylic acid] | <<1.00% | approximately 10% |  | therapeutic level in blood ([3]; blood of a healthy adult): 150 to 300 mg/L; time of peak levels [2, 4]: 1 to 2 h; half-life ([2]; in serum): approximately 6 hours
O=C(O)CNC(=O)c1cc(O)ccc1O [Gentisuric acid] | <<1.00% |  |  | 
O=C(O)c1cc(-c2ccc(F)cc2F)ccc1O [Diflusinal] | <<1.00% |  |  | 
CC(=O)Oc1ccccc1C(=O)O [Aspirin, 2-acetoxybenzoic acid] | <<1.00% |  |  | moderately toxic concentration (MTC), aspirin equivalent ([3]; Chyka et al (2007)): 6.5 g; toxic concentration, aspirin ingestion ([3]; general literature): > 300 mg/kg; concentrations considered to be toxic ([3]; serum): exceeding 300 mg/l; therapeutic concentration range in serum ([3]; serum): 150 to 300 mg/L; time until only trace levels remain [2, 4]: ≤ 2 h
O=C(O)c1ccccc1O[C@@H]1O[C@H](C(=O)O)[C@@H](O)[C@H](O)[C@H]1O [salicylphenolic glucuronide] |  | approximately 8% | Michaelis-Menten or zero-order kinetics | 
O=C(O)CNC(=O)c1ccccc1O [Salicyluric acid, salicyluric acid] |  | approximately 75% | Michaelis-Menten or zero-order kinetics | 
O=C(O[C@@H]1O[C@H](C(=O)O)[C@@H](O)[C@H](O)[C@H]1O)c1ccccc1O [salicylacyl glucuronide] |  | approximately 5% | first-order kinetics | 
COC(=O)c1ccccc1O [Methyl salicylate] | <<1.00% |  |  | 
